Inconclusive results and toxic doses are left out. Rule as the data show it: active = T/C of 150% or more; inactive = T/C below 125%.
Test system: L1210 leukemia ip in BDF1 mice, survival T/C
Experiment: NCI In Vivo Anticancer Drug Screen. Data for tumor model L1210 Leukemia (intraperitoneal) in B6D2F1 (BDF1) mice
Conditions: endpoint: mean survival time, higher = longer survival
In short: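 Each compound was tested against a transplantable tumor grown in mice. The endpoint was survival, with treated animals benchmarked against vehicle controls as a simple ratio.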

[1] = dose: 100.0 mg/kg/injection, schedule: Q01DX009 (ip), vehicle: Klucel (hydroxypropylcellulose) (HPC)
[2] = dose: 200.0 mg/kg/injection, schedule: Q01DX009 (ip), vehicle: Klucel (hydroxypropylcellulose) (HPC)
[3] = dose: 400.0 mg/kg/injection, schedule: Q01DX009 (ip), vehicle: Klucel (hydroxypropylcellulose) (HPC)
[4] = dose: 100.0 mg/kg/injection, schedule: Q01DX009 (ip), vehicle: saline
[5] = dose: 100.0 mg/kg/injection, schedule: Q04DX003 (ip), vehicle: saline
[6] = dose: 200.0 mg/kg/injection, schedule: Q01DX009 (ip), vehicle: saline
[7] = dose: 200.0 mg/kg/injection, schedule: Q04DX003 (ip), vehicle: saline
[8] = dose: 400.0 mg/kg/injection, schedule: Q01DX009 (ip), vehicle: saline
[9] = dose: 400.0 mg/kg/injection, schedule: Q04DX003 (ip), vehicle: saline

Measured: T/C

COC1(c2ccc(Br)cc2)OC1(C)C (stereo unspecified)
inactive: dose: 25.0 mg/kg/injection, schedule: Q01DX009 (ip), vehicle: water 95 % of control | dose: 50.0 mg/kg/injection, schedule: Q01DX009 (ip), vehicle: water 101 % of control | dose: 100.0 mg/kg/injection, schedule: Q01DX009 (ip), vehicle: water 106 % of control | dose: 200.0 mg/kg/injection, schedule: Q01DX009 (ip), vehicle: water 107 % of control | dose: 400.0 mg/kg/injection, schedule: Q01DX009 (ip), vehicle: water 101 % of control

COc1ccc(NC(=O)NC(C)(C)C)c(OC)c1
inactive: [1] 100 % of control | [2] 100 % of control | [3] 98 % of control

ClCSc1ccccc1
inactive: dose: 100.0 mg/kg/injection, schedule: Q04DX003 (ip), vehicle: other 100 % of control | dose: 200.0 mg/kg/injection, schedule: Q04DX003 (ip), vehicle: other 104 % of control | dose: 400.0 mg/kg/injection, schedule: Q04DX003 (ip), vehicle: other 102 % of control

CS(=O)(=O)O
inactive: [4] 102 % of control | [5] 108 % of control | [6] 93 % of control | [7] 98 % of control | [8] 100 % of control | [9] 109 % of control

CCCCN1CCSC1=S
inactive: dose: 100.0 mg/kg/injection, schedule: Q01DX009 (ip), vehicle: alcohol 93 % of control | dose: 100.0 mg/kg/injection, schedule: Q04DX002 (ip), vehicle: alcohol 100 % of control | dose: 200.0 mg/kg/injection, schedule: Q01DX009 (ip), vehicle: alcohol 96 % of control | dose: 200.0 mg/kg/injection, schedule: Q04DX002 (ip), vehicle: alcohol 87 % of control | dose: 400.0 mg/kg/injection, schedule: Q01DX009 (ip), vehicle: alcohol 86 % of control | dose: 400.0 mg/kg/injection, schedule: Q04DX002 (ip), vehicle: alcohol 103 % of control

COC(=O)C(=O)CC(=O)c1ccc([N+](=O)[O-])cc1
inactive: dose: 100.0 mg/kg/injection, schedule: Q04DX002 (ip), vehicle: Klucel (hydroxypropylcellulose) (HPC) 95 % of control | dose: 200.0 mg/kg/injection, schedule: Q04DX002 (ip), vehicle: Klucel (hydroxypropylcellulose) (HPC) 95 % of control | dose: 400.0 mg/kg/injection, schedule: Q04DX002 (ip), vehicle: Klucel (hydroxypropylcellulose) (HPC) 103 % of control

CCOC(=O)c1ccc(N=NC2C(=O)N(c3ccccc3)N=C2C)cc1 (stereo unspecified)
inactive: dose: 100.0 mg/kg/injection, schedule: Q01DX001 (ip), vehicle: saline 96 % of control | dose: 200.0 mg/kg/injection, schedule: Q01DX001 (ip), vehicle: saline 96 % of control

NNc1ncccn1
inactive: dose: 5.0 mg/kg/injection, schedule: Q01DX001 (ip), vehicle: saline 102 % of control | dose: 10.0 mg/kg/injection, schedule: Q01DX001 (ip), vehicle: saline 109 % of control | dose: 20.0 mg/kg/injection, schedule: Q01DX001 (ip), vehicle: saline 113 % of control

COC1(c2ccc(Cl)s2)OC1(C)C (stereo unspecified)
inactive: [4] 100 % of control | [5] 100 % of control | [6] 96 % of control | [7] 105 % of control | [8] 105 % of control | [9] 96 % of control

S=C=NCc1cccc2ccccc12
inactive: dose: 2.5 mg/kg/injection, schedule: Q01DX009 (ip), vehicle: carboxymethylcellulose (CMC) 90 % of control | dose: 5.0 mg/kg/injection, schedule: Q01DX009 (ip), vehicle: carboxymethylcellulose (CMC) 94 % of control | dose: 5.0 mg/kg/injection, schedule: Q04DX003 (ip), vehicle: carboxymethylcellulose (CMC) 101 % of control | dose: 10.0 mg/kg/injection, schedule: Q01DX001 (ip), vehicle: carboxymethylcellulose (CMC) 93 % of control | dose: 10.0 mg/kg/injection, schedule: Q01DX009 (ip), vehicle: carboxymethylcellulose (CMC) 105 % of control | dose: 10.0 mg/kg/injection, schedule: Q04DX003 (ip), vehicle: carboxymethylcellulose (CMC) 97 % of control | dose: 20.0 mg/kg/injection, schedule: Q01DX001 (ip), vehicle: carboxymethylcellulose (CMC) 87 % of control | dose: 20.0 mg/kg/injection, schedule: Q04DX003 (ip), vehicle: carboxymethylcellulose (CMC) 97 % of control

CCOC(=O)C1(C(=O)OCC)CCC2Nc3ccccc3C(=O)N21 (stereo unspecified)
inactive: dose: 50.0 mg/kg/injection, schedule: Q04DX003 (ip), vehicle: Klucel (hydroxypropylcellulose) (HPC) 99 % of control | dose: 100.0 mg/kg/injection, schedule: Q04DX003 (ip), vehicle: Klucel (hydroxypropylcellulose) (HPC) 101 % of control | dose: 200.0 mg/kg/injection, schedule: Q04DX003 (ip), vehicle: Klucel (hydroxypropylcellulose) (HPC) 87 % of control

C#CCOCC(O)C[As](=O)(O)c1cccc(Cl)c1 (stereo unspecified)
inactive: dose: 1.56 mg/kg/injection, schedule: Q04DX003 (ip), vehicle: saline with Tween-80 92 % of control | dose: 3.13 mg/kg/injection, schedule: Q04DX003 (ip), vehicle: saline with Tween-80 104 % of control | dose: 6.25 mg/kg/injection, schedule: Q04DX003 (ip), vehicle: saline with Tween-80 104 % of control

CCOC(=O)C1CCc2c(ccc3ccccc23)N1C(C)=O (stereo unspecified)
inactive: [1] 94 % of control | [2] 88 % of control | [3] 91 % of control

C=C1C(=O)O[C@@H]2CC(C)=C3CC[C@@](C)(O)[C@@H]3C[C@H]12
inactive: dose: 75.0 mg/kg/injection, schedule: Q04DX003 (ip), vehicle: Klucel (hydroxypropylcellulose) (HPC) 106 % of control | dose: 150.0 mg/kg/injection, schedule: Q04DX003 (ip), vehicle: Klucel (hydroxypropylcellulose) (HPC) 102 % of control | dose: 300.0 mg/kg/injection, schedule: Q04DX003 (ip), vehicle: Klucel (hydroxypropylcellulose) (HPC) 98 % of control | dose: 600.0 mg/kg/injection, schedule: Q04DX003 (ip), vehicle: Klucel (hydroxypropylcellulose) (HPC) 94 % of control

[C-]#[N+]/C=C1\OC(=O)C=C1C
inactive: dose: 100.0 mg/kg/injection, schedule: Q04DX002 (ip), vehicle: saline with Tween-80 97 % of control | dose: 200.0 mg/kg/injection, schedule: Q04DX002 (ip), vehicle: saline with Tween-80 110 % of control | dose: 400.0 mg/kg/injection, schedule: Q04DX002 (ip), vehicle: saline with Tween-80 97 % of control

C[n+]1ccccc1/C=N/Nc1ccccc1
inactive: dose: 75.0 mg/kg/injection, schedule: Q01DX001 (ip), vehicle: other 96 % of control

CC(CC=C(CCC(C)CC(C)(C)C)CCC(C)CC(C)(C)C)CC(C)(C)C (stereo unspecified)
inactive: dose: 75.0 mg/kg/injection, schedule: Q01DX001 (ip), vehicle: saline with Tween-80 99 % of control | dose: 150.0 mg/kg/injection, schedule: Q01DX001 (ip), vehicle: saline with Tween-80 100 % of control | dose: 300.0 mg/kg/injection, schedule: Q01DX001 (ip), vehicle: saline with Tween-80 97 % of control

CC(=O)OC1C(COS(=O)(=O)c2ccc(C)cc2)OCOC(COS(=O)(=O)c2ccc(C)cc2)C1OC(C)=O (stereo unspecified)
inactive: dose: 100.0 mg/kg/injection, schedule: Q01DX001 (ip), vehicle: Klucel (hydroxypropylcellulose) (HPC) 100 % of control | dose: 200.0 mg/kg/injection, schedule: Q01DX001 (ip), vehicle: Klucel (hydroxypropylcellulose) (HPC) 93 % of control | dose: 400.0 mg/kg/injection, schedule: Q01DX001 (ip), vehicle: Klucel (hydroxypropylcellulose) (HPC) 90 % of control

[Co].[NH-]C(=O)c1ccccn1.[NH2-].[NH2-].[NH2-].[NH2-].[NH2-]
inactive: dose: 100.0 mg/kg/injection, schedule: Q04DX002 (ip), vehicle: saline 118 % of control | dose: 200.0 mg/kg/injection, schedule: Q04DX002 (ip), vehicle: saline 101 % of control | dose: 400.0 mg/kg/injection, schedule: Q04DX002 (ip), vehicle: saline 108 % of control
